Source: ChEMBL document CHEMBL5291721, “A preclinical secondary pharmacology resource illuminates target-adverse drug reaction associations of marketed drugs” (Nat Commun, 2023)

Columns and labels:
[1] = biological target: T1, Muscarinic acetylcholine receptor M2 (Homo sapiens, UniProt P08172); format: functional, cell-based
T1 sequence (P08172 whole entry): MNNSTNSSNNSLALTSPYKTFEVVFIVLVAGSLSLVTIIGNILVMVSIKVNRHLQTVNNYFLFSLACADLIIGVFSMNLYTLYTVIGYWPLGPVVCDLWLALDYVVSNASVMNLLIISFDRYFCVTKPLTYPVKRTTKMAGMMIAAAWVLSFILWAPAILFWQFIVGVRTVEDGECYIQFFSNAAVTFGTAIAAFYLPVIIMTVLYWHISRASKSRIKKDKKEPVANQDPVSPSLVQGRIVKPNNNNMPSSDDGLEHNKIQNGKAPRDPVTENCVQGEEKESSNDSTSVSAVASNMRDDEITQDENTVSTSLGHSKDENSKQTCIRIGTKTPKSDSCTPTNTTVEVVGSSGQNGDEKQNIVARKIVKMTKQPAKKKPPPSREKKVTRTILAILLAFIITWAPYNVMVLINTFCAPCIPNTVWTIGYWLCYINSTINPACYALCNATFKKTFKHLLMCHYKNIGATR

Progesterone receptor = biological target: T2, Progesterone receptor (Homo sapiens, UniProt P06401); format: functional
T2 sequence (P06401 whole entry): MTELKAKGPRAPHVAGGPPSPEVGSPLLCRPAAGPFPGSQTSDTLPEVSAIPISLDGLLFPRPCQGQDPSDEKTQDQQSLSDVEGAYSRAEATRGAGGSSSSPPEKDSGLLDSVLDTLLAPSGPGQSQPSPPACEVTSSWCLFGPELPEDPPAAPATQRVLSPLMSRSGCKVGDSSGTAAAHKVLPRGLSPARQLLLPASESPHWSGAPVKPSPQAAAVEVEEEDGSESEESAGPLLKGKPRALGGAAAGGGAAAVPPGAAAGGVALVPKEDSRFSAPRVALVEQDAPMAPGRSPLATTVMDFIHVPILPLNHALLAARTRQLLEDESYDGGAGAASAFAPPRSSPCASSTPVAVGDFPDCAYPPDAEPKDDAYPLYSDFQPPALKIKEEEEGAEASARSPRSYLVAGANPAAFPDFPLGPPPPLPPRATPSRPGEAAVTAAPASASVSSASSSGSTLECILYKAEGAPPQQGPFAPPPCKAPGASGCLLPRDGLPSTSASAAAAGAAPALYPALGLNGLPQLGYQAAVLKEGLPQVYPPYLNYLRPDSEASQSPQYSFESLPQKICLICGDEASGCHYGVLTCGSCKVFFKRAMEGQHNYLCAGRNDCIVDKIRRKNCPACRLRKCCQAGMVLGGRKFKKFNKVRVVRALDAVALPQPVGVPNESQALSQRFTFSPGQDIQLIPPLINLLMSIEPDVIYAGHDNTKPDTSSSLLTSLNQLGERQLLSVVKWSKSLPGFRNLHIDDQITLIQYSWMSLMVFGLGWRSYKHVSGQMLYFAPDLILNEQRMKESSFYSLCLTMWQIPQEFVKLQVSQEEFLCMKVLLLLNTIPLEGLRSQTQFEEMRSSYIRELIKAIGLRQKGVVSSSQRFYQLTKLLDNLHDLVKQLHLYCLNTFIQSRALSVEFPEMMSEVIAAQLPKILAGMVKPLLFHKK

Histamine H2 receptor = Histamine H2 receptor (Homo sapiens, UniProt P25021); format: functional, cell-based
Histamine H2 receptor, sequence (P25021 whole entry): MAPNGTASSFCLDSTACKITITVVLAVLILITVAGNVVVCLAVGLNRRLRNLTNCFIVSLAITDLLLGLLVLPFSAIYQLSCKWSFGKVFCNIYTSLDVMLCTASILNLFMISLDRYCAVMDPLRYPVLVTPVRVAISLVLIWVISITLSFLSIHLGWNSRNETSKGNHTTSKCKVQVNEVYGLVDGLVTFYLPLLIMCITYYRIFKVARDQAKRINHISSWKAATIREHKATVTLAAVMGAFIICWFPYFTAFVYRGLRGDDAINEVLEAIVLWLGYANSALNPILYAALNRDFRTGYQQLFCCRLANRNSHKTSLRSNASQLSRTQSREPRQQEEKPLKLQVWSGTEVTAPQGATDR

[2] = biological target: T3, 5-hydroxytryptamine receptor 1A (Homo sapiens, UniProt P08908); format: functional, cell-based
T3 sequence (P08908 whole entry): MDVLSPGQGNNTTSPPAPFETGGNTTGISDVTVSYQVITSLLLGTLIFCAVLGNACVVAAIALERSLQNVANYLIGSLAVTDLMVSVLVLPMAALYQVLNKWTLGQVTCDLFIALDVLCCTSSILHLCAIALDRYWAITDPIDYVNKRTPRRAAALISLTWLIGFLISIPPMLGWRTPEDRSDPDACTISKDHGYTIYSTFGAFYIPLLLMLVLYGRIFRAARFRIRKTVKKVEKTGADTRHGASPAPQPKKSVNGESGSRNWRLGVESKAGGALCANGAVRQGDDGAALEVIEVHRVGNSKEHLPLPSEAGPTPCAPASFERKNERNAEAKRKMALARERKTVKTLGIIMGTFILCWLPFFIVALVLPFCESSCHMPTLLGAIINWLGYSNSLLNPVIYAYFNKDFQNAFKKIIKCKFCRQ

Vasopressin V1a receptor = Vasopressin V1a receptor (Homo sapiens, UniProt P37288)
Vasopressin V1a receptor, sequence (P37288 whole entry): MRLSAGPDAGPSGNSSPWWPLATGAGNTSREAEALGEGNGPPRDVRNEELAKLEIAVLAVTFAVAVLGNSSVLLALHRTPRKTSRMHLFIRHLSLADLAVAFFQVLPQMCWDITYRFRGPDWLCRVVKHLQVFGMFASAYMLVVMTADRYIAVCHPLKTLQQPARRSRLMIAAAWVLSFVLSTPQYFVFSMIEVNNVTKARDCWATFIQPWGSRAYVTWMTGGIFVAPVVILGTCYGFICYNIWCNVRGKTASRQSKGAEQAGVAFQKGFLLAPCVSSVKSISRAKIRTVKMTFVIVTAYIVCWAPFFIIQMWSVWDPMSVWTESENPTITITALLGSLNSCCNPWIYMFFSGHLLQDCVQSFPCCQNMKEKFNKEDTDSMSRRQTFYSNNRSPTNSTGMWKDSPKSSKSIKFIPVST

Vasopressin V2 receptor = Vasopressin V2 receptor (Homo sapiens, UniProt P30518)
Vasopressin V2 receptor, sequence (P30518 whole entry): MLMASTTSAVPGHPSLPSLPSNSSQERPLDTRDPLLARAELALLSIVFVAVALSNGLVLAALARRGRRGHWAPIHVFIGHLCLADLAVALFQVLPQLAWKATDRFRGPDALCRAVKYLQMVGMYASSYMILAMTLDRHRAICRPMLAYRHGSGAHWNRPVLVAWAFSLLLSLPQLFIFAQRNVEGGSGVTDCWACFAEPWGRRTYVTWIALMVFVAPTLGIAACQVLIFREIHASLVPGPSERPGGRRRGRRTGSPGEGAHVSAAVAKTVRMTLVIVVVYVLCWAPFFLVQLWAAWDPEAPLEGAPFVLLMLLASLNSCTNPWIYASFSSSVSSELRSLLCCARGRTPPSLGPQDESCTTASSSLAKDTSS

[3] = biological target: 5-hydroxytryptamine receptor 2B (Homo sapiens, UniProt P41595); format: functional, cell-based
5-hydroxytryptamine receptor 2B, sequence (P41595 whole entry): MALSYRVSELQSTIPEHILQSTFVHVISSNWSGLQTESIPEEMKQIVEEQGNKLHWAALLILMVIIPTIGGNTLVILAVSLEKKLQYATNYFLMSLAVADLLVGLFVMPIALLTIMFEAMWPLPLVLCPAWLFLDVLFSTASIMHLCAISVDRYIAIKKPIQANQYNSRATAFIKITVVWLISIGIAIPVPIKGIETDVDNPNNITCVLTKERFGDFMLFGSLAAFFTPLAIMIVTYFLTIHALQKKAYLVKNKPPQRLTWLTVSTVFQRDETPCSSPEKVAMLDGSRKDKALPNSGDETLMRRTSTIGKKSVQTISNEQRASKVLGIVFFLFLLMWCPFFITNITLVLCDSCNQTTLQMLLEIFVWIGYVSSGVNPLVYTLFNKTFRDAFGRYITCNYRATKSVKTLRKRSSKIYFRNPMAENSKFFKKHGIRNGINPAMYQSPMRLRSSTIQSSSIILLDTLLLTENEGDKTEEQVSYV
Further: assay procedure not described here.

Compound	AC50 [1] [µM]	AC50 (Progesterone receptor) [µM]	AC50 (Histamine H2 receptor) [µM]	AC50 [2] [µM]	AC50 (Vasopressin V1a receptor) [µM]	AC50 (Vasopressin V2 receptor) [µM]	AC50 [3] [µM]
Cc1cc(C2CCCCC2)n(O)c(=O)c1 [CICLOPIROX]	> 30	> 30	–	–	–	–	–
CC[C@@H](CO)NC(=O)[C@@H]1C=C2c3cccc4c3c(cn4C)C[C@H]2N(C)C1 [METHYSERGIDE]	> 30	–	2.78	0.2	> 30	> 30	–
CC(C)[C@H](N)C(=O)OCCOCn1cnc2c(=O)[nH]c(N)nc21 [VALACYCLOVIR]	> 10	–	> 10	> 10	> 10	> 30	> 10
CC(C)(O/N=C(\C(=O)N[C@@H]1C(=O)N2C(C(=O)[O-])=C(C[n+]3ccccc3)CS[C@H]12)c1csc(N)n1)C(=O)O [CEFTAZIDIME]	> 300	> 300	> 30	> 300	> 300	> 30	> 300
O=C1Cc2cc(CCN3CCN(c4nsc5ccccc45)CC3)c(Cl)cc2N1 [ZIPRASIDONE]	> 10	–	> 10	0.95	> 10	> 30	> 30
CN(CCOc1ccc(CC2SC(=O)NC2=O)cc1)c1ccccn1 (configuration not stated) [ROSIGLITAZONE]	> 30	> 30	> 30	> 30	> 30	> 30	> 30
CC(C(=O)O)c1ccc2oc(-c3ccc(Cl)cc3)nc2c1 (configuration not stated) [BENOXAPROFEN]	> 30	> 30	> 30	> 30	–	> 30	> 30
Cc1nnc(SCC2=C(C(=O)O)N3C(=O)[C@@H](NC(=O)Cn4cnnn4)[C@H]3SC2)s1 [CEFAZOLIN]	> 300	> 300	> 30	> 300	> 300	> 30	> 300
Clc1ccc(Cn2c(CN3CCCC3)nc3ccccc32)cc1 [CLEMIZOLE]	> 10	–	–	> 30	> 30	–	0.67
CNC(=C[N+](=O)[O-])NCCSCc1csc(CN(C)C)n1 [NIZATIDINE]	> 10	> 10	> 10	> 10	–	> 10	> 10
CCCCCCCN(CC)CCCC(O)c1ccc(NS(C)(=O)=O)cc1 (configuration not stated) [IBUTILIDE]	> 30	> 30	> 30	> 30	> 30	> 30	> 30
Cc1onc(-c2c(F)cccc2Cl)c1C(=O)N[C@@H]1C(=O)N2[C@@H]1SC(C)(C)[C@@H]2C(=O)O [FLOXACILLIN]	> 30	> 30	–	> 30	> 30	–	> 30
CC(C)Cc1ccc([C@H](C)C(=O)O)cc1 [DEXIBUPROFEN]	> 30	> 30	–	> 30	> 30	–	> 30
O=C(O)Cc1ccccc1Oc1ccc(Cl)cc1Cl [FENCLOFENAC]	> 10	–	> 10	> 10	> 10	> 30	> 10
S=P(N1CC1)(N1CC1)N1CC1 [THIOTEPA]	–	> 30	–	> 10	> 30	–	> 30
CCC(=O)O[C@]1(C(=O)CCl)[C@@H](C)C[C@H]2[C@@H]3CCC4=CC(=O)C=C[C@]4(C)[C@@]3(F)[C@@H](O)C[C@@]21C [CLOBETASOL PROPIONATE]	> 30	0.053	> 30	> 30	–	> 30	> 30
CCCc1nc2c(C)cc(-c3nc4ccccc4n3C)cc2n1Cc1ccc(-c2ccccc2C(=O)O)cc1	> 30	> 30	> 10	> 30	> 30	> 30	> 30
CCOc1cc([C@@H](CS(C)(=O)=O)N2C(=O)c3cccc(NC(C)=O)c3C2=O)ccc1OC	> 30	> 30	–	> 30	> 30	–	> 30
CC1(C)S[C@@H]2[C@H](NC(=O)C(C(=O)O)c3ccccc3)C(=O)N2[C@H]1C(=O)O (some centres not stated) [CARBENICILLIN]	> 30	> 30	> 30	> 30	> 30	> 30	> 30
CCCc1cc(=O)[nH]c(=S)[nH]1 [PROPYLTHIOURACIL]	> 10	> 10	> 10	> 10	> 10	> 10	> 10
CNC[C@H](O)c1ccc(O)c(O)c1 [EPINEPHRINE]	> 30	> 30	–	–	–	–	> 30
Cn1cc(C(=O)[C@@H]2CCc3nc[nH]c3C2)c2ccccc21 [RAMOSETRON]	> 30	> 30	> 30	> 30	> 30	> 30	> 30
CCOc1nc2cccc(C(=O)O)c2n1Cc1ccc(-c2ccccc2-c2nnn[nH]2)cc1	> 30	> 30	> 10	> 30	> 30	> 30	> 30
Cc1nc(Nc2ncc(C(=O)Nc3c(C)cccc3Cl)s2)cc(N2CCN(CCO)CC2)n1 [DASATINIB]	> 30	> 30	> 30	> 30	> 30	> 30	> 30
CCCNC(=O)NS(=O)(=O)c1ccc(Cl)cc1 [CHLORPROPAMIDE]	> 10	–	> 10	> 10	> 30	> 30	> 10
COc1cc(C(C)=O)ccc1OCCCN1CCC(c2noc3cc(F)ccc23)CC1 [ILOPERIDONE]	> 30	> 30	–	> 30	> 30	–	> 30
COc1cc(C(=O)NS(=O)(=O)c2ccccc2C)ccc1Cc1cn(C)c2ccc(NC(=O)OC3CCCC3)cc12 [ZAFIRLUKAST]	–	> 30	> 10	> 10	> 10	> 10	–
CC(CN1c2ccccc2Sc2ccccc21)N(C)C (configuration not stated) [PROMETHAZINE]	> 30	–	> 10	> 10	> 10	> 30	> 10
CC[C@H](C)C(=O)O[C@H]1C[C@@H](C)C=C2C=C[C@H](C)[C@H](CC[C@@H]3C[C@@H](O)CC(=O)O3)[C@H]21 [LOVASTATIN]	> 10	–	> 10	> 10	> 10	> 30	> 10
CC(C)C[C@H](NC(=O)[C@@H](O)[C@H](N)Cc1ccccc1)C(=O)O [UBENIMEX]	> 30	> 30	> 30	> 30	–	–	> 30
